Positions of bridges follow the written chain, without caps; N, C: chain ends. Non-standard residues stand in square brackets, D forms with d. Residues, ends and D or L forms follow the SMILES beside them. *: point of attachment. Phe(4-CF3) = N[C@@H](Cc1ccc(C(F)(F)F)cc1)C(=O)O; NMeF = CN[C@@H](Cc1ccccc1)C(=O)O; NMeI = CC[C@H](C)[C@H](NC)C(=O)O; NMeL = CN[C@@H](CC(C)C)C(=O)O; NMeV = CN[C@H](C(=O)O)C(C)C; Pip = O=C(O)[C@@H]1CCCCN1; NMeA = CN[C@@H](C)C(=O)O; Piperidide = C1CCN(*)CC1; dNMeA = CN[C@H](C)C(=O)O; NEtG = CCNCC(=O)O; Sar = CNCC(=O)O; tBu = CC(C)(C)*

The nature of the first data set: Caco-2 membrane permeability, improved method as used in the following Examples (96-well, 20 to 24 h preincubation). The data set is classed as in vitro ADME. To be noted: Caco-2, Caco-2 (cm/sec). Put shortly: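 Caco-2 monolayers were grown three weeks and preincubated 20–24 h at 37 °C with compound in DMEM+FaSSIF (1% DMSO) apically. The assay then used compound in FaSSIF/HBSS (1% DMSO, pH 6.0) apically and HBSS with 4% BSA (pH 7.4) basally. Basal samples were taken at 180 min for LC/MS, and Papp (cm/sec) was calculated.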
Background: Caco-2 monolayers are a common model of the intestinal barrier.
As a reminder, the Papp A→B is how fast a substance crosses the layer from the apical side. Low values mean poor permeation, high ones ready permeation. `CC(C)C[C@H]1C(=O)N[C@@H](COC(C)(C)C)C(=O)N(C)[C@@H](C(C)C)C(=O)N(C)[C@@H](C)C(=O)N[C@H](C(=O)N2CCCCC2)CC(=O)N[C@H](C)C(=O)N(C)[C@@H](Cc2ccccc2)C(=O)N[C@@H](Cc2ccc(C(F)(F)F)cc2)C(=O)N(C)[C@@H](CC(C)C)C(=O)N[C@@H]([C@@H](C)O)C(=O)N(C)CC(=O)N1C` [pd130] ([dA][NMeF][Phe(4-CF3)][NMeL]T[Sar][NMeL]S(tBu)[NMeV][NMeA]D-Piperidide; lactam N-11) gave a Papp A→B of 1.1 ×10⁻⁶ cm/s.

On to `CC[C@H](C)[C@H]1C(=O)N[C@@H]([C@@H](C)O)C(=O)N(C)CC(=O)N(C)[C@@H](C)C(=O)N[C@H](C(=O)N2CCCCC2)CC(=O)N(C)[C@@H](C)C(=O)N[C@@H](Cc2ccc(C(F)(F)F)cc2)C(=O)N(C)[C@@H](CC(C)C)C(=O)N(C)[C@@H](Cc2ccccc2)C(=O)N[C@@H](C)C(=O)N(C)[C@@H](CC(C)C)C(=O)N1C` [pd131] ([NMeA][Phe(4-CF3)][NMeL][NMeF]A[NMeL][NMeI]T[Sar][NMeA]D-Piperidide; lactam N-11), for which the Papp A→B came to 1.1 ×10⁻⁶ cm/s.

Still in this data set, the particulars now being: human, Caco-2, Caco-2 (cm/sec).
For the compound `CC[C@H](C)[C@@H]1NC(=O)[C@H](C(C)C)N(C)C(=O)[C@H](C)N(C)C(=O)[C@H]([C@@H](C)O)NC(=O)[C@H](CC(C)C)N(C)C(=O)[C@H](Cc2ccc(C(F)(F)F)cc2)NC(=O)[C@H](CC(C)C)N(C)C(=O)[C@@H](C)N(C)C(=O)C[C@@H](C(=O)N2CCCCC2)NC(=O)[C@H](CC(C)C)NC(=O)[C@@H]2CCCN2C1=O` [pd133] ([dNMeA][NMeL][Phe(4-CF3)][NMeL]T[NMeA][NMeV]IPLD-Piperidide; lactam N-11), the Papp A→B at 180 min came to 2.3 ×10⁻⁶ cm/s.

Regarding `CC(C)C[C@H]1C(=O)N[C@@H](COC(C)(C)C)C(=O)N(C)[C@@H](Cc2ccccc2)C(=O)N(C)[C@@H](C)C(=O)N[C@H](C(=O)N2CCCCC2)CC(=O)N[C@H](C(C)C)C(=O)N(C)[C@@H](C(C)C)C(=O)N[C@@H](Cc2ccc(C(F)(F)F)cc2)C(=O)N(C)[C@@H](CC(C)C)C(=O)N[C@@H]([C@@H](C)O)C(=O)N(C)CC(=O)N1C` [pd134] ([dV][NMeV][Phe(4-CF3)][NMeL]T[Sar][NMeL]S(tBu)[NMeF][NMeA]D-Piperidide; lactam N-11), the Papp A→B at 180 min was determined as 2.6 ×10⁻⁶ cm/s.

In turn, `CC(C)C[C@H]1C(=O)N(C)[C@@H](C)C(=O)N(C)[C@@H](Cc2ccccc2)C(=O)N[C@@H]([C@@H](C)O)C(=O)N(C)[C@@H](CC(C)C)C(=O)N[C@@H](Cc2ccc(C(F)(F)F)cc2)C(=O)N2CCC[C@H]2C(=O)N[C@H](C(=O)N2CCCCC2)CC(=O)N1C` [pd135] ([NMeL][NMeA][NMeF]T[NMeL][Phe(4-CF3)]PD-Piperidide; lactam N-8) displayed a Papp A→B at 180 min of 1.3 ×10⁻⁶ cm/s.

For `CC(C)C[C@H]1C(=O)N[C@@H]([C@@H](C)O)C(=O)N2CCC[C@H]2C(=O)N(C)[C@@H](C)C(=O)N[C@@H](Cc2ccc(C(F)(F)F)cc2)C(=O)N(C)[C@@H](CC(C)C)C(=O)N(C)[C@@H](CC(C)C)C(=O)N[C@H](C(=O)N2CCCCC2)CC(=O)N1C` [pd136] ([NMeL]TP[NMeA][Phe(4-CF3)][NMeL][NMeL]D-Piperidide; lactam N-8), the Papp A→B at 180 min was 1.6 ×10⁻⁶ cm/s.

With `CC(C)C[C@H]1C(=O)N[C@H](C(=O)N2CCCCC2)CC(=O)N[C@H](C)C(=O)N(C)[C@@H](CC(C)C)C(=O)N[C@@H](COC(C)(C)C)C(=O)N(C)[C@@H](CC(C)C)C(=O)N2CCCC[C@H]2C(=O)N(C)[C@@H](C)C(=O)N[C@@H]([C@@H](C)O)C(=O)N(C)[C@@H](Cc2ccccc2)C(=O)N[C@@H](Cc2ccc(C(F)(F)F)cc2)C(=O)N1C` [pd137] ([dA][NMeL]S(tBu)[NMeL][Pip][NMeA]T[NMeF][Phe(4-CF3)][NMeL]D-Piperidide; lactam N-11), the Papp A→B at 180 min turned out to be 2.2 ×10⁻⁶ cm/s.

For `CC(C)C[C@H]1C(=O)N[C@@H](COC(C)(C)C)C(=O)N(C)[C@@H](Cc2ccccc2)C(=O)N(C)[C@@H](C)C(=O)N[C@H](C(=O)N2CCCCC2)CC(=O)N[C@H](C(C)C)C(=O)N(C)[C@@H](CC(C)C)C(=O)N[C@@H](Cc2ccc(C(F)(F)F)cc2)C(=O)N(C)[C@@H](CC(C)C)C(=O)N[C@@H]([C@@H](C)O)C(=O)N(C)CC(=O)N1C` [pd138] ([dV][NMeL][Phe(4-CF3)][NMeL]T[Sar][NMeL]S(tBu)[NMeF][NMeA]D-Piperidide; lactam N-11), the apparent permeability from apical to basolateral (Papp A→B) at 180 min worked out at 2.6 ×10⁻⁶ cm/s.

`CC(C)C[C@H]1C(=O)N(C)[C@@H](CC(C)C)C(=O)N[C@@H](COC(C)(C)C)C(=O)N(C)[C@@H](C(C)C)C(=O)N[C@H](C(=O)N2CCCCC2)CC(=O)N(C)CC(=O)N(C)[C@@H](Cc2ccccc2)C(=O)N[C@@H](Cc2ccc(C(F)(F)F)cc2)C(=O)N(C)[C@@H](CC(C)C)C(=O)N[C@@H]([C@@H](C)O)C(=O)N(C)CC(=O)N1C` [pd140] ([Sar][NMeF][Phe(4-CF3)][NMeL]T[Sar][NMeL][NMeL]S(tBu)[NMeV]D-Piperidide; lactam N-11): the Papp A→B at 180 min turned out to be 2.5 ×10⁻⁶ cm/s.

`CC(C)C[C@H]1C(=O)N[C@H](C(=O)N2CCCCC2)CC(=O)N[C@H](C)C(=O)N(C)[C@@H](CC(C)C)C(=O)N2CCCC[C@H]2C(=O)N(C)[C@@H](CC(C)C)C(=O)N2CCCC[C@H]2C(=O)N(C)[C@@H](C)C(=O)N[C@@H]([C@@H](C)O)C(=O)N(C)[C@@H](Cc2ccccc2)C(=O)N[C@@H](Cc2ccc(C(F)(F)F)cc2)C(=O)N1C` [pd141] ([dA][NMeL][Pip][NMeL][Pip][NMeA]T[NMeF][Phe(4-CF3)][NMeL]D-Piperidide; lactam N-11): the Papp A→B at 180 min was determined as 2.1 ×10⁻⁶ cm/s.

Take `CC[C@H](C)[C@H]1C(=O)N[C@@H]([C@@H](C)O)C(=O)N(C)CC(=O)N(C)[C@@H](CC(C)C)C(=O)N[C@H](C(=O)N2CCCCC2)CC(=O)N(C)[C@@H](C)C(=O)N[C@@H](CC(C)C)C(=O)N(C)[C@@H](CC(C)C)C(=O)N(C)[C@@H](CC(C)C)C(=O)N[C@@H](Cc2ccc(C(F)(F)F)cc2)C(=O)N(C)[C@@H](C)C(=O)N1C` [pd142] ([NMeA]L[NMeL][NMeL][Phe(4-CF3)][NMeA][NMeI]T[Sar][NMeL]D-Piperidide; lactam N-11): the apparent permeability from apical to basolateral (Papp A→B) at 180 min is 2.9 ×10⁻⁶ cm/s.

For the compound `CCN1CC(=O)N[C@@H]([C@@H](C)O)C(=O)N(C)[C@@H](CC(C)C)C(=O)N(C)[C@@H](CC(C)C)C(=O)N[C@@H](Cc2ccc(C(F)(F)F)cc2)C(=O)N[C@H](C(=O)N2CCCCC2)CC(=O)N[C@@H](COC(C)(C)C)C(=O)N(C)[C@@H](CC(C)C)C1=O` [pd143] (S(tBu)[NMeL][NEtG]T[NMeL][NMeL][Phe(4-CF3)]D-Piperidide; lactam N-8), the Papp A→B at 180 min came to 1.1 ×10⁻⁶ cm/s.

For `CC[C@H](C)[C@@H]1NC(=O)[C@H](CC(C)C)NC(=O)[C@H](CC(C)C)N(C)C(=O)[C@H](C)NC(=O)C[C@@H](C(=O)N2CCCCC2)NC(=O)[C@H](CC(C)C)N(C)C(=O)[C@H]([C@@H](C)O)NC(=O)[C@H](Cc2ccc(C(F)(F)F)cc2)NC(=O)[C@H](CC(C)C)N(C)C1=O` [pd144] (A[NMeL]LI[NMeL][Phe(4-CF3)]T[NMeL]D-Piperidide; lactam N-9), the Papp A→B at 180 min came to 2.1 ×10⁻⁶ cm/s.

For the origin of these results see patent US20200131669A1, “CYCLIC PEPTIDE COMPOUND HAVING HIGH MEMBRANE PERMEABILITY, AND LIBRARY CONTAINING SAME” (Chugai Seiyaku Kabushiki Kaisha, priority 2017, published 2020).
